# Test results from EP0030835A1, “Derivatives of 2-substituted-6-phenyl-3(2H)pyridazinone, their production and pharmaceutical compositions containing them” (MORISHITA PHARMACEUTICAL CO. LTD., priority 1979, dated 1981).
# Assays:
# Aspirin-induced ulcer = assay: Aspirin-induced ulcer; assay type: in vivo; conditions: Rattus norvegicus; rats, 100 mg/kg intraduodenally, aspirin 100 mg/kg orally, 7 hours, length of erosion; read-out: Rate of inhibition, Aspirin-ulcer (%)
# Experimental: One group of 10 rats of body weight of from 2x10^-1 to 2.5x10^-1 kg (200 to 250 g) was subjected to laparotomy under ether-anaesthesia, after 24 hour-fasting with ad lib. taking water, to have ligature of their pylorus (according to Okabe et al., 1974). Just after the ligature, an aqueous suspension of one of the compounds of the invention in a 1% CMC solution was intraduodenally administered to the rats at a dose of 10^-4 kg/kg (100 mg/kg). After closing the abdomen, an aqueous dispersion of aspirin in a 1% CMC solution was orally administered at a dose of 10^-4 kg/kg (100 mg/kg). After 7 hours of the aspirin administration, the stomach was extirpated under ether-anaesthesia, and the length (in 10^-3m (mm)) of erosions generated on the mucosa of the glandular stomach region was measured. The sum of the length of erosion on rats of one group was represented by the ulcer coefficient. The same procedures were carried out on another group of 10 rats of the same strain (a control group) except that an aqueous 1% CMC solution was administered instead of the aqueous dispersion of one of the compounds of the present invention. The rate of inhibition of the occurrence of ulcers was obtained by calculation as in 1-2), the results being also shown in Table 1.
# (§1) Note: ^* The structure of the compounds of the invention is expressed by the formula: [drawing 8] **The structure of the reference compound is expressed by the formula: [drawing 9] **Experiments were carried out on rats and the rate of inhibition was obtained at a dose of 10^-4 kg/kg (100 mg/kg) orally or intraduodenally.
# Stress ulcer = Stress ulcer (restriction in water); assay type: in vivo; conditions: Rattus norvegicus, po; rats, 100 mg/kg orally, immersed in water at 23°C for 20 hours, length of erosion; read-out: Rate of inhibition, Stress ulcer (%)
# Experimental: One group of 10 rats of body weight of from 2x10^-1 to 2.5x10^-1kg (200 to 250 g) after oral administration of an aqueous suspension of the compound of the invention being tested in a 1% CMC solution at a dose of 10^-4 kg/kg (100 mg/kg) were kept in stress cages and immersed in water at a temperature of 23°C to the depth of their thorax for 20 hours to give a stress of restriction in water. Another group of 10 rats of the same strain (a control group) were also treated with the same stress, but after administration of an aqueous 1% CMC solution.
# Just after removing the rats from the water, they were clubbed to death and their stomachs were extirpated. Then, about 1.5x10^-5m^3 (15 ml) of an aqueous 1% formaldehyde solution was injected into each stomach. After maintaining the formaldehyde solution in the stomachs for 10 minutes to enable the solution to contact to the inner stomach wall, each stomach was cut open along the greater curvature to examine the length of erosion (in 10" m (mm)) generated on the mucosa of the glandular stomach region under an anatomical microscope. The sum of the length of erosion for rats of one group was represented by the ulcer coefficient. The rate of inhibition of the occurrence of the ulcer by each compound was obtained by the same method as in 1-1), the results being shown also in Table 1.
# as §1
# [1] = Acute oral toxicity (LD50 p.o.); conditions: rat, in vivo, rats, read-out: Acute oral toxicity (LD50,kgx10^-6/kg)
# gastric secretion = assay: Effects on gastric secretion (pylorus-ligated rats); assay type: in vivo; conditions: Rattus norvegicus, intraduodenal, 100 mg/kg intraduodenally, pylorus ligature, gastric juice collected after 7 hours, read-out: Rate of inhibition, Gastric secretion (%)
# Experimental: One group of 10 rats of body weight of from 1.5x10^-1 to 1.8x10^-1 kg (150 to 180g) was subjected to ligature of the pylorus after 24-hours fasting, under ether-anaesthesia, and one of the compounds of the present invention or the reference compound was administered as a dispersion in an aqueous 1% CMC solution into the duodenum. Only an aqueous 1% CMC solution was administered into the duodenum of a control group of 10 rats. After 7 hours from closing the abdomen, the stomach was extirpated under ether-anaesthesia to collect the gastric juice that had accumulated in it. The inhibiting effect of each drug on gastric secretion was calculated by the following formula: [formula] wherein Amount of gastric juice of control group = A ml Amount of gastric juice of test group = B ml The results are also shown in Table 1.
# as §1
# Shay's ulcer = assay: Shay's ulcer; assay type: in vivo; conditions: Rattus norvegicus, intraduodenal; rats, 100 mg/kg intraduodenally, pylorus ligature, 18 hours, ulcer area of forestomach; read-out: Rate of inhibition, Shay's ulcer (%)
# Experimental: Two groups of rats of body weight of from 2x10^-1 to 2.5x10^-1 kg (200 to 250 g), each group consisting of 10 animals, were treated under ether-anaesthesia by ligature of the pylorus after 48 hour-fasting (during which water was taken ad lib.) and, just after the operation, an aqueous suspension of one of the compounds of the invention in a 1% solution of carboxymethylcellulose (hereinafter referred to as CMC) was administered intraduodenally to the rats in one group at a dose of 10^-4 kg/kg (100 mg/kg). The other group (control) was given an aqueous 1% solution of CMC intraduodenally. After keeping these animals for 18 hours without giving them any food and water, their stomachs were extirpated under ether anaesthesia and the area (m^2x10^-6) (mm ) of the ulcer generated on the forestomach part of the rats was determined under an anatomical microscope. The total area of the ulcers of one group was represented by an ulcer coefficient. The rate of inhibition of the occurrence of ulcers (%) was obtained by calculation according to the following formula: Rate of inhibition of the occurrence of ulcers (%)= 100 x (Ulcer coeff. of control qp) - (Ulcer coeff. of test qp) (ulcer coeff.of control gp)
# as §1
Structure (SMILES),inhibition in vivo at 100 mg/kg (Aspirin-induced ulcer) [%],inhibition in vivo at 100 mg/kg (Stress ulcer) [%],LD50 [1] [mg/kg],inhibition in vivo at 100 mg/kg (gastric secretion) [%],inhibition in vivo at 100 mg/kg (Shay's ulcer) [%]
"CCN=C(NC#N)NCCCCn1nc(-c2ccccc2)ccc1=O [Compound No. 50, N-cyano-N'-[4-(3-oxo-6-phenyl-2-pyridazinyl)butyl]-N""-ethylguanidine]",86.2,77.2,> 5000,59.2,73.4
"CCN=C(NC#N)NCCCn1nc(-c2ccccc2)ccc1=O [Compound No. 48, N-cyano-N'-[3-(3-oxo-6-phenyl-2-pyridazinyl)propyl]-N""-ethylguanidine]",93.8,70.5,> 5000,51.9,76.4
"CN=C(NC#N)NCCCCn1nc(-c2ccc(Cl)cc2)ccc1=O [Compound No. 59, N-cyano-N'-[4-{6-(4-chlorophenyl)-3-oxo-2-pyridazinyl}butyl]-N""- methylguanidine]",89.5,72.1,4800,63.1,61.5
"CN=C(NC#N)NCCSCn1nc(-c2ccccc2)ccc1=O [Compound No. 138, N-cyano-N'-[2-{(3-oxo-6-phenyl-2-pyridazinyl)methylthio}ethyl]-N""-methylguanidine]",90.2,68.2,4800,70.2,88.3
"CCN=C(NC#N)NCCCCCn1nc(-c2ccccc2)ccc1=O [Compound No. 53, N-cyano-N'-[5-(3-oxo-6-phenyl-2-pyridazinyl)pentyl]-N""-ethylguanidine]",90.6,79,> 5000,68.5,93.2
"CN=C(NC#N)NCCCCn1nc(-c2ccccc2)cc(C)c1=O [Compound No. 81, N-cyano-N'-[4-(4-methyl-3-oxo-6-phenyl-2-pyridazinyl)butyl]-N""- methylguanidine]",90.8,63.4,> 5000,54.2,72.4
"CN=C(NC#N)NCCCCn1nc(-c2ccccc2)ccc1=O [Compound No. 44, N-cyano-N'-[4-(3-oxo-6-phenyl-2-pyridazinyl)butyl]-N""-methylguanidine]",97.5,71.2,> 5000,77.6,97.8
"CN=C(NC#N)NCCCCn1nc(-c2ccc(C)cc2)ccc1=O [Compound No. 65, N-cyano-N'-[4-{6-(4-methylphenyl)-3-oxo-2-pyridazinyl}butyl]-N""- methylguanidine]",91.4,70.5,> 5000,58.5,70.3
